Laboratory results taken from US20070077215A1, “Administration of phenylfurymethylthiazolidine-2,4-dione or phenylthienymethylthiazolidine-2,4-dione compounds for promoting and/or inducing and/or stimulating the pigmentation of keratinous substances and/or limiting their depigmentation and/or their whitening” (L'OREAL, priority 2005, published 2007).
pIC50: −log10 of the molar value.

target: T1, Type-1 15-PGDH (Homo sapiens, UniProt P15428); assay: Test on type-1 15-PGDH (spectrophotometric enzyme inhibition); format: biochemical; settings: Tris buffer pH 7.4, 1.5 mM β-NAD, 50 μM prostaglandin E2, 37° C., 340 nm; read-out: IC50dh (concentration that reduces the enzymatic activity of 15-PGDH by 50%)
T1 construct: made in house
T1 sequence (P15428 1-266): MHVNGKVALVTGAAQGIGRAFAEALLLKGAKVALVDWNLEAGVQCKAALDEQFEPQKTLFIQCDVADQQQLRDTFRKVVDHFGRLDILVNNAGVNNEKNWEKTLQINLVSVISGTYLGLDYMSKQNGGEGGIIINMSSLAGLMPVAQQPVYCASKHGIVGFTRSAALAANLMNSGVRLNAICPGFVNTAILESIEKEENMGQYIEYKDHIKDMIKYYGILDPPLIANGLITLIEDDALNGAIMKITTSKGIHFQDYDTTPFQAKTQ
Procedure: The enzyme 15-PGDH is obtained as disclosed in FR 02/05067, assigned to the assignee hereof, in suspension in a medium adjusted to a concentration of 0.3 mg/ml and then blocked at −80° C. For the requirements of the test, this suspension is defrosted and stored in ice.
Furthermore, a 100 mM, pH=7.4, Tris buffer comprising 0.1 mM of dithiothreitol (D5545, Sigma-Aldrich, L'isle D'Abeau Chesne, BP 701, 38297, Saint Quentin Fallavier) 1.5 mM of β-NAD (N6522, Sigma-Aldrich, L'isle D'Abeau Chesne, BP 701, 38297, Saint Quentin Fallavier) and 50 μM of prostaglandin E2 (P4172, Sigma-Aldrich, L'isle D'Abeau Chesne, BP 701, 38297, Saint Quentin Fallavier) is prepared.
0.965 ml of this buffer (adjusted beforehand to 37° C.) is introduced into the cell of a spectrophotometer (Perkin-Elmer, Lambda 2) thermostatically controlled at 37° C., the measuring wavelength of which is adjusted to 340 nm. 0.035 ml of enzymatic suspension at 37° C. is introduced into the cell concomitantly with the recording (corresponding to an increase in the optical density at 340 nm). The maximum reaction rate is recorded.
The test values (comprising compound 1) are compared with the control value (without compound 1); the results shown represent either the percentage of inhibition of the enzymatic activity of 15-PGDH for a given concentration of compound of formula (I) or the concentration at which compound 1 reduces the enzymatic activity of 15-PGDH by 50%, namely IC50dh.

Going from `O=C1N=C(O)C(Cc2ccc(-c3ccc(C(=O)O)cc3)o2)S1` (stereo not drawn) [Compound 1, 4-{5-[(2,4-dioxo-1,3-thiazolidin-5-yl)methyl]-2-furyl}benzoic acid] to `O=C1NC(=O)C(Cc2ccc(-c3cccc(Cl)c3)o2)S1` (stereo not drawn) [Compound 3, 5-{[5-(3-chlorophenyl)-2-furyl]methyl}-1,3-thiazolidine-2,4-dione], the pIC50 falls from 5.52 to 5.28 (0.24 log units). The first is the more potent here.

Compared with `O=C1NC(=O)C(Cc2ccc(-c3cccc(C(F)(F)F)c3)o2)S1` (stereo not drawn) [Compound 2, 5-[5-(3-(trifluoromethyl)phenyl)fur-2-ylmethyl]-1,3-thiazolidine-2,4-dione], `CCOC(=O)c1cccc(-c2ccc(CC3SC(=O)NC3=O)o2)c1` (stereo not drawn) [Compound 4, Ethyl 3-{5-[(2,4-dioxo-1,3-thiazolidin-5-yl)methyl]-2-furyl}benzoate] is 0.25 log units higher in pIC50: 5.09 for the first, 5.34 for the second. The second is the more potent here.

Compared with `O=C1NC(=O)C(Cc2ccc(-c3ccc(C(F)(F)F)cc3)s2)S1` (stereo not drawn) [Compound 5, 5-({5-[4-(trifluoromethyl)phenyl]thien-2-yl}methyl)-1,3-thiazolidine-2,4-dione], `O=C1NC(=O)C(Cc2ccc(-c3cccc(CO)c3)s2)S1` (stereo not drawn) [Compound 7, 5-({5-[3-(Hydroxymethyl)phenyl]-2-thienyl}methyl)-1,3-thiazolidine-2,4-dione] is 0.33 log units lower in pIC50: 4.75 for the first, 4.42 for the second. The first is the more potent here.
